# The source made the active and inactive calls.
# Columns and labels:
# Large T antigen = Large T antigen (Simian virus 40, UniProt P03070); type: functional, Betapolyomavirus macacae;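 further: Confirmatory-stage PubChem screen for compounds that inhibit SV40 T antigen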
# [1] = molecular target: Eukaryotic translation initiation factor 4E (Mus musculus, UniProt P63073); test: blockers of eIF4G binding by eIF4E – biochemical, TR-FRET, dose response (AID 855); type: functional;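 further: potency for disrupting eIF4E binding to eIF4GI seen as loss of FRET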
# Sequence of Eukaryotic translation initiation factor 4E (P63073 whole entry): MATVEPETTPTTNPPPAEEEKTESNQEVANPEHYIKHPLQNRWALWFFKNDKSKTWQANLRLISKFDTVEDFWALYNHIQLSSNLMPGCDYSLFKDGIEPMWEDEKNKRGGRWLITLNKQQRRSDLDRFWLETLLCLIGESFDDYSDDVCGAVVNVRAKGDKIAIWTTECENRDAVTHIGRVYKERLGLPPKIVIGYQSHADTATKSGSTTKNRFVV
# [2] = molecular target: T1, Short transient receptor potential channel 4 (Mus musculus, UniProt Q9QUQ5); test: block of DAMGO-driven TRPC4 calcium entry – cell-based, HEK293 TRPC4/mu-opioid, Fluo-4 calcium, dose response (AID 434942); type: functional;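 further: potency of inhibitors blocking the TRPC4 calcium response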
# T1 sequence (Q9QUQ5 whole entry): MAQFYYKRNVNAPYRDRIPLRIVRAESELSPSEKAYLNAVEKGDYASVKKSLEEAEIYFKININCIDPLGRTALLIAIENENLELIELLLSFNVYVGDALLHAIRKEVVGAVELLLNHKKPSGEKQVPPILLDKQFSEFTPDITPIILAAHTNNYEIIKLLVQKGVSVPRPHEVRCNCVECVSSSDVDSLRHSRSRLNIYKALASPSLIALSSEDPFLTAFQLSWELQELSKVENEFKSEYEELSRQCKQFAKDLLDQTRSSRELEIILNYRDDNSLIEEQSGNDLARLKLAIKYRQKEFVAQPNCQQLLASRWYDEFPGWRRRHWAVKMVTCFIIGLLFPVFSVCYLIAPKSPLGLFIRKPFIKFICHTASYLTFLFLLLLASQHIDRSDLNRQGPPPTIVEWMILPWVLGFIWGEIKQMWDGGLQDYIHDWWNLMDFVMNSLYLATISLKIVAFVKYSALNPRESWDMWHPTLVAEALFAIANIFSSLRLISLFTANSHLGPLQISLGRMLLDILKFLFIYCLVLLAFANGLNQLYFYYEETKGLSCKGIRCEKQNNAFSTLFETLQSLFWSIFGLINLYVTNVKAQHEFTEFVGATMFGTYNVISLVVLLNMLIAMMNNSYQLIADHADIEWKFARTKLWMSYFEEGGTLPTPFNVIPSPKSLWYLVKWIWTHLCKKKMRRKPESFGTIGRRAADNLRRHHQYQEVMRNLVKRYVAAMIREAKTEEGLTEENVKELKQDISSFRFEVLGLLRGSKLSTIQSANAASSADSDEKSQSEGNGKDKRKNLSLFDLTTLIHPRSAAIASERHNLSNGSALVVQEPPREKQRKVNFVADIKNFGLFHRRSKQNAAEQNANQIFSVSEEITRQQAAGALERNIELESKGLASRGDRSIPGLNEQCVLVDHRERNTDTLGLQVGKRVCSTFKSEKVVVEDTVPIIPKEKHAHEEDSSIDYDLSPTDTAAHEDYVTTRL
# Aminopeptidase N = molecular target: T2, Aminopeptidase N (Plasmodium falciparum FcB1/Columbia, UniProt O96935); test: malaria alanyl aminopeptidase activity blockers – biochemical, fluorogenic H-Leu-NHMec substrate, 1536-well (AID 1445); set-up: species or system Plasmodium falciparum 3D7, 3D7
# T2 sequence (O96935 whole entry): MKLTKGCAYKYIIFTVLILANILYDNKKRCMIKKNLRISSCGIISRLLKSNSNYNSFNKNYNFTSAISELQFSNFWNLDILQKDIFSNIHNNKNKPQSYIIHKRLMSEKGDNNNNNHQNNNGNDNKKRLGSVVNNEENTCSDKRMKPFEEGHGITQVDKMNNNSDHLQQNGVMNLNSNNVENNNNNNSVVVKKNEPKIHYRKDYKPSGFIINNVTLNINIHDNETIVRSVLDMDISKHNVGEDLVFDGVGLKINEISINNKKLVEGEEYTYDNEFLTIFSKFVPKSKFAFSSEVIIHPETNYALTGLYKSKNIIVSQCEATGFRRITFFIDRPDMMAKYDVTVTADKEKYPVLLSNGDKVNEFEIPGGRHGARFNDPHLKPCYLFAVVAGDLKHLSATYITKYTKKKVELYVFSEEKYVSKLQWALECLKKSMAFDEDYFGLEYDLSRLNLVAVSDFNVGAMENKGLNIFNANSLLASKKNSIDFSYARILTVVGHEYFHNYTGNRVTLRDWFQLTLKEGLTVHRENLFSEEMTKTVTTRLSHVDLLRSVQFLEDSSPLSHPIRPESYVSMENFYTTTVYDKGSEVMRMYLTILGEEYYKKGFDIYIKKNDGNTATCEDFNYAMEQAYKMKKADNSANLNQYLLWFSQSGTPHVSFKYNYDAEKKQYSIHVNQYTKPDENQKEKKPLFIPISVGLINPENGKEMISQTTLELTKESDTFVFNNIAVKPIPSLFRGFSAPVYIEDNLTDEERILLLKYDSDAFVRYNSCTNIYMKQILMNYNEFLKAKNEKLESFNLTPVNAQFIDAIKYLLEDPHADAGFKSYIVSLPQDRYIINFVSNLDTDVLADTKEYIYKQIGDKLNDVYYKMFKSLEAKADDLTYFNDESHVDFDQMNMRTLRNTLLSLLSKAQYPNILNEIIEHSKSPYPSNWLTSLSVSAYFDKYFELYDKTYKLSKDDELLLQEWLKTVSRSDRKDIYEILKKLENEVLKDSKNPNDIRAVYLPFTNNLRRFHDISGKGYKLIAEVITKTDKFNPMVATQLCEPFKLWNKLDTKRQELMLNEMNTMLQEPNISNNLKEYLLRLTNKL
# Leucine aminopeptidase = molecular target: T3, Leucine aminopeptidase (Plasmodium falciparum 3D7, UniProt Q8IL11); test: P. falciparum M17LAP inhibitors, primary screen, biochemical, fluorogenic H-Leu-NHMec substrate, 1536-well (AID 1619); type: functional
# T3 sequence (Q8IL11 whole entry): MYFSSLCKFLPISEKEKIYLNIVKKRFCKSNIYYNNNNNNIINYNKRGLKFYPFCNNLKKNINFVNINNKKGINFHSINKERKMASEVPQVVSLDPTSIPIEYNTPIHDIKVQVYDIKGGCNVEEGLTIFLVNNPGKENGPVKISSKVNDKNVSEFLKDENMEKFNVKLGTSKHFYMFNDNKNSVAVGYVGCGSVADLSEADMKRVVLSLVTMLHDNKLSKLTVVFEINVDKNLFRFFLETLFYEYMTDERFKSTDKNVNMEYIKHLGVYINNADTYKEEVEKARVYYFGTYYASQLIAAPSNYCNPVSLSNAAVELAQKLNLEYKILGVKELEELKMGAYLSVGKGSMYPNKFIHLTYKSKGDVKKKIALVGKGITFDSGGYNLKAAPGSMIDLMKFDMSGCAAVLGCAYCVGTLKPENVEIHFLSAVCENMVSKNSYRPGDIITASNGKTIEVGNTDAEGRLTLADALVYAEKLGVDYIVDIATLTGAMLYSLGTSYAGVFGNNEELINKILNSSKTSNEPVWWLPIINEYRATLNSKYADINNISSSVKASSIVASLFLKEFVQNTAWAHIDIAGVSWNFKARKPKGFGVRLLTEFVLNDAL
# [3] = molecular target: T4, Ubiquitin-conjugating enzyme E2 N (Homo sapiens, UniProt P61088); type: functional;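 further: Dose-response confirmation in a TR-FRET assay detecting UBC13-driven polyubiquitin chain formation, inhibition measured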
# T4 sequence (P61088 whole entry): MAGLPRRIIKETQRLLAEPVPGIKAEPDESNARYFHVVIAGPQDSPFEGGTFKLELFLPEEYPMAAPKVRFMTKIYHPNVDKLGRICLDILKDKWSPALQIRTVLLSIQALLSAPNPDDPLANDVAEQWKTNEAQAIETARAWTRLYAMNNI
# [4] = molecular target: T5, Replicative DNA helicase DnaB (Mycobacterium tuberculosis, UniProt P9WMR3); test: DnaB intein splicing inhibitors, dose response, biochemical, cell-free fluorescence (AID 449749); type: functional
# T5 sequence (P9WMR3 whole entry): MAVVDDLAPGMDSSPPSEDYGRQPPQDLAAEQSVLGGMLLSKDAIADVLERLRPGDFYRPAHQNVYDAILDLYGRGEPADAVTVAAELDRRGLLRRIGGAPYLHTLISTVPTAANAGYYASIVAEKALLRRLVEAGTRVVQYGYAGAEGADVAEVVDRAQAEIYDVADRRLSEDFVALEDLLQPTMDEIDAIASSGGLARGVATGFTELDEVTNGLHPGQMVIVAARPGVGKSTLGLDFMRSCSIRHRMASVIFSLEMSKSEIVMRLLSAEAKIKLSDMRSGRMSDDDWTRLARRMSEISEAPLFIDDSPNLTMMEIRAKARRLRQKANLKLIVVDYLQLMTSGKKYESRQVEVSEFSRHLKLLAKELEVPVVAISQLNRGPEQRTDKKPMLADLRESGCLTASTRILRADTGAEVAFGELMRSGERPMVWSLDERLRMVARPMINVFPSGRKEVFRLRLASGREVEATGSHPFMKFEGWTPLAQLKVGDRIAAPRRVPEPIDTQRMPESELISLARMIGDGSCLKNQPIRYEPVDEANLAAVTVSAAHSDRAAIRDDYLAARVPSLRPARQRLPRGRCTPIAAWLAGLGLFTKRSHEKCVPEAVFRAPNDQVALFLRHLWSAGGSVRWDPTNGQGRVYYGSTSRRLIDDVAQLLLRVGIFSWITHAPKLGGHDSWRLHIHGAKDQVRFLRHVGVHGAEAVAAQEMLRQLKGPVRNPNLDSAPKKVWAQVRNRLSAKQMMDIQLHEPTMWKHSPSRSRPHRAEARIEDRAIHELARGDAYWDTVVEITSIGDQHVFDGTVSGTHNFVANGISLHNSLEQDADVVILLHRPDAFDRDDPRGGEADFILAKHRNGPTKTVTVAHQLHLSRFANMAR
# Protein RecA = molecular target: T6, Protein RecA (Mycobacterium tuberculosis, UniProt P9WHJ3); test: Fluorescence Cell-Free Homogeneous Dose Retest to Identify Inhibitors of RecA-Intein Splicing Activity. [Related pubchem assays (depositor defined):AID2097, AID2223, AID489010, AID492950]; type: functional
# T6 sequence (P9WHJ3 whole entry): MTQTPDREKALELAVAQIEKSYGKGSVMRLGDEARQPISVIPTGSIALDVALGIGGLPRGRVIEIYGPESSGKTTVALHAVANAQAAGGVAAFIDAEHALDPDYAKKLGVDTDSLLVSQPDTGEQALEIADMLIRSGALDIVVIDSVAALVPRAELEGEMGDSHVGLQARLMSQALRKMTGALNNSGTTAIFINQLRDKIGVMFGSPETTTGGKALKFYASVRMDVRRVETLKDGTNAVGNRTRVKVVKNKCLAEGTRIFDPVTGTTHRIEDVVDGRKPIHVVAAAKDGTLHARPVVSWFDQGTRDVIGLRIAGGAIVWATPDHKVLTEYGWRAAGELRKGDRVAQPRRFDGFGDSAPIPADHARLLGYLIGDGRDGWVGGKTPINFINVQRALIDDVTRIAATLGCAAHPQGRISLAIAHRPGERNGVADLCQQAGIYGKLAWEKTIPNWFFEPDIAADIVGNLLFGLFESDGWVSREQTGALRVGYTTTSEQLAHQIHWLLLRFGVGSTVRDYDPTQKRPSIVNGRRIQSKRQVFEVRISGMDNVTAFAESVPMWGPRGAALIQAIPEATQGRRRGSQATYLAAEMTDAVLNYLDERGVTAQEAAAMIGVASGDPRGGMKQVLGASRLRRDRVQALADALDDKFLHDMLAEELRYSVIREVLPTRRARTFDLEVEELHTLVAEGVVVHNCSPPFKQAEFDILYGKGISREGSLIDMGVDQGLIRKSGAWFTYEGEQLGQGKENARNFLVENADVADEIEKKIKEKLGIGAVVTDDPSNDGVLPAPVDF
# [5] = molecular target: DNA dC->dU-editing enzyme APOBEC-3G (Homo sapiens, UniProt Q9HC16); test: Dose Response confirmation of small molecule APOBEC3G DNA Deaminase Inhibitors via a fluorescence-based single-stranded DNA deaminase assay. [Related pubchem assays (depositor defined):AID493012, AID493028]; type: functional
# Sequence of DNA dC->dU-editing enzyme APOBEC-3G (Q9HC16 whole entry): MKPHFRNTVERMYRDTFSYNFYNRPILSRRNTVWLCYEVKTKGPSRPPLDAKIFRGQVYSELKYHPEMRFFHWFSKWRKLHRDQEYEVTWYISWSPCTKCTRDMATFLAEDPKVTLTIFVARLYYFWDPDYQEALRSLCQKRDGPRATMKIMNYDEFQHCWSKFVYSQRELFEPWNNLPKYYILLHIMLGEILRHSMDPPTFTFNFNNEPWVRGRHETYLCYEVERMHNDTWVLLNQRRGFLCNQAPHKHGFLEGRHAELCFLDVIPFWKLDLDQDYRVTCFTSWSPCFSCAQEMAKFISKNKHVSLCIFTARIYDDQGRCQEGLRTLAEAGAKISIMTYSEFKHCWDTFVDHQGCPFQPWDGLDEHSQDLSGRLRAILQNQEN
# Nonstructural protein 1 = Nonstructural protein 1 (Influenza A virus, UniProt Q194T2); type: functional, Influenza A virus (A/California/07/2009(H1N1))
# Sequence of Nonstructural protein 1 (Q194T2 whole entry): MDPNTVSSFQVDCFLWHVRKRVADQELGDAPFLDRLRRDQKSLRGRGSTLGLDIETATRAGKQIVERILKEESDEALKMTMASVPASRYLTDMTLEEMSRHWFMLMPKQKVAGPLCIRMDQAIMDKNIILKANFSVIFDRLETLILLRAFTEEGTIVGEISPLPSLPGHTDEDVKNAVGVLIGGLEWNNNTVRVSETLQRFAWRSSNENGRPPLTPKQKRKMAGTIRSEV
# cells [6] = type: functional, cell-based
# cells [7] = type: functional, cell-based; remark: listed apart in the source
# [8] = Trypanosoma cruzi growth suppression in host cells – NIH3T3 host cells, beta-gal luminescence, confirmation (AID 2044); type: functional, cell-based;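 further: intracellular parasites grown in NIH/3T3 mouse fibroblasts as host cells; luminescent beta-galactosidase reporter signal from transgenic T. cruzi replicating inside host cells; inhibitors lower the luminescence signal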
# [9] = NIH3T3 cell viability loss – ATP luminescence, mouse fibroblasts, counter-screen, dose response (AID 2010); type: functional, cell-based;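 further: cells exposed to compound for about 90 hours before reading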
# Sequence of Large T antigen (P03070 whole entry): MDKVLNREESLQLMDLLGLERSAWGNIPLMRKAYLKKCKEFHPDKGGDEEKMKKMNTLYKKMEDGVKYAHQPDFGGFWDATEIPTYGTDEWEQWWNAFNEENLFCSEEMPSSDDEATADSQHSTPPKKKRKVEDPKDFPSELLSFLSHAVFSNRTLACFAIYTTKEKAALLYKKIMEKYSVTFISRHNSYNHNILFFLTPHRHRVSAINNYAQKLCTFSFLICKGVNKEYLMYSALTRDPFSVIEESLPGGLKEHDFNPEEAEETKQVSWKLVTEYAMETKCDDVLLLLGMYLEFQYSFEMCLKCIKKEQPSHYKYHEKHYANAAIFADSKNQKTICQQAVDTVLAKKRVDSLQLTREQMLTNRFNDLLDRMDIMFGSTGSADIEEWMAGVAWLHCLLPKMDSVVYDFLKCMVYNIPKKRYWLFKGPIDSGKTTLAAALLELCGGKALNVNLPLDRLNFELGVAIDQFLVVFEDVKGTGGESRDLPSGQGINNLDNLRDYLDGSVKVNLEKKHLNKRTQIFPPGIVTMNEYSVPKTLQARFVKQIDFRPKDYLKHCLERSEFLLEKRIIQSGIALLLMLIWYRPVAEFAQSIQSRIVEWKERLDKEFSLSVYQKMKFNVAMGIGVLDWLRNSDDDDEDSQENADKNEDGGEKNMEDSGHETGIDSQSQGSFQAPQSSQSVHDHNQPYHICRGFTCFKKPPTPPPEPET
smiles,measurement,setting,value
Oc1ccc(-c2[nH]ncc2-c2cccc3cccnc23)c(O)c1,IC50,Large T antigen,25.7 µM (active)
same,IC50,[1],> 64 µM (inactive)
Fc1ccc(C2CCCN2Cc2nc(Cc3ccccc3)no2)cc1 (stereo unspecified),IC50,[1],50 µM (inactive)
O=C(Nc1ccccc1Oc1cccnc1)C1CCCN(Cc2ccc(F)cc2)C1 (stereo unspecified),EC50,[2],3.35 µM (active)
O=C(NN1C(=O)c2ccccc2NC12CCCCC2)c1ccccc1,IC50,Aminopeptidase N,6.87 µM (active)
CCOc1cc(C2C(C#N)=C(N)Oc3[nH]nc(-c4ccccc4)c32)ccc1O (stereo unspecified),IC50,Leucine aminopeptidase,77.1 µM (active)
same,IC50,[3],> 20 µM (inactive)
same,AC50,[4],1.81 µM (active)
same,EC50,Protein RecA,0.689 µM (active)
CCOc1ccc(Nc2nc3cc(S(=O)(=O)N(CC)CC)ccc3o2)cc1,IC50,[5],> 100 µM (inactive)
COc1cc2cc(C(c3nnnn3C3CCCC3)N(C)C3CCCCC3)c(O)nc2cc1OC (stereo unspecified),IC50,[1],> 64 µM (inactive)
O=C(Cc1ccccc1[N+](=O)[O-])OCc1cccc([N+](=O)[O-])c1,EC50,[2],0.376 µM (active)
Cc1nnc2sc(SCC(=O)Nc3ccc(Cl)cc3)nn2c1=O,IC50,Nonstructural protein 1,9.75 µM (active)
COc1ccc(CC(=O)Nc2nnc(C(C)C)s2)cc1,IC50,[1],50 µM (inactive)
Cc1ccc(/C(=N/Nc2ncnc3ccccc23)C(=O)O)cc1,EC50,cells [6],> 350 µM (not active)
same,EC50,cells [7],> 350 µM (not active)
same,IC50,Nonstructural protein 1,9.46 µM (active)
Cc1cc(C)n(CC(=O)N/N=C/c2cc(Br)cc([N+](=O)[O-])c2O)n1,IC50,Aminopeptidase N,19.2 µM (active)
same,EC50,[8],0.678 µM (active)
same,EC50,[9],15.9 µM (active)
CSc1n/c(=N/C(C)=O)ss1,IC50,[5],25.8 µM (active)

# — ChEMBL document CHEMBL1201862, “PubChem BioAssay data set” (2004)
